{
  "source": "patent US20100137398A1",
  "about": "“USE OF HDAC INHIBITORS FOR THE TREATMENT OF GASTROINTESTINAL CANCERS” (NOVARTIS AG, priority 2007, published 2010)",
  "assay_in_all_cases": "Monolayer growth inhibition assay (MTT/MTS)",
  "format_in_all_cases": "cell-based",
  "key": {"[1]": {"test_system": "SW480 colon cancer cell line", "from_the_text": "(§1) The MTT is a colorimetric assay to determine the cell proliferation rate. The yellow tetrazolium MTT (3-(4, 5-dimethylthiazolyl-2)-2, 5-diphenyltetrazolium bromide) is reduced, by metabolically active cells, in part by the action of dehydrogenase enzymes, to generate reducing equivalents such as NADH and NADPH. The resulting intracellular purple formazan can be solubilized and quantified by spectrophotometric means. The signals produced is directly proportional to the cell numbers. Describing the MTT assay in detail, experiments were done using six-point or 9 point drug titrations in multi-well tissue culture dishes, with outer rows left empty. Cells were suspended in complete media at densities of between 10^3 and 10^4 cell/ml, respectively, and added per well. The appropriate medium (200 μl) was then added. Twenty-four hours later, 10 μl of MTS solution, were added to one plates to determine the activity at the time of compound addition (T0). This plate was incubated at 37° for 4 hours and the optical density was measured on a Molecular Devices Thermomax at 490 nm using the Softmax program. The T0 plate served as a reference for initial activity at the beginning of the experiment.\n(§2) Compound addition began 24 hours after seeding, the same time as the T0 determination. Serial dilutions at 4-fold 2-fold, 1-fold, 0.5-fold, 0.25-fold and 0.125-fold of previously determined IC50 values of each compound were made in a 96-deep well plate with the highest concentrations on the edge of the plate. Each of the six dilutions were added in triplicate and complete medium was added to the empty outer rows, without cells. The compounds were added to the plates singly or in combination with Compound III (LBH589). The plates were incubated at 37° C. for 72 hours from seeding. The MTS solution was added (as for the T0 plate) and read four hours later. In order to analyze the data, the average value of media alone (background) was subtracted from each experimental well and the triplicate values were averaged for each compound dilution. The following formulas were used to calculate percent growth.\n(§3) If X>T0, % Growth=100×(X−T0)/(GC−T0))\n(§4) If X<T0, % Growth=100×(X−T0)/T0)\n(§5) T0=average value of T0 minus background\n(§6) GC=average value of untreated cells (in triplicate) minus background X=average value, of compound treated cells (in triplicate) minus background\n(§7) IC50 the concentration of LBH589 required to inhibit cell growth by 50% and LD50s the concentration required to reduce cell number (kill cells) to 50% the original innoculum were determined. The “% Growth” was plotted against compound concentration and used to calculate IC50s and LD50s, employing the user-defined spline function in Microsoft Excel.\n(§8) Colon cancer cell lines were treated with DMSO vehicle control or varying concentrations of LBH589 for 3 days. Cell proliferation was measured on the day of cell plating and on the third day post-treatment. IC50 and LD50 values were calculated as described above."}, "[2]": {"test_system": "CaCo2 colon cancer cell line", "from_the_text": "as §1, §2, §3, §4, §5, §6, §7, §8"}, "[3]": {"test_system": "SW837 colon cancer cell line", "from_the_text": "as §1, §2, §3, §4, §5, §6, §7, §8"}, "[4]": {"test_system": "C2Bbe-1 colon cancer cell line", "from_the_text": "as §1, §2, §3, §4, §5, §6, §7, §8"}, "[5]": {"test_system": "Colo320 colon cancer cell line", "from_the_text": "as §1, §2, §3, §4, §5, §6, §7, §8"}, "[6]": {"test_system": "KM20L2 colon cancer cell line", "from_the_text": "as §1, §2, §3, §4, §5, §6, §7, §8"}, "[7]": {"test_system": "WiDr colon cancer cell line", "from_the_text": "as §1, §2, §3, §4, §5, §6, §7, §8"}, "[8]": {"test_system": "Colo320HSR colon cancer cell line", "from_the_text": "as §1, §2, §3, §4, §5, §6, §7, §8"}, "[9]": {"test_system": "SW1116 colon cancer cell line", "from_the_text": "as §1, §2, §3, §4, §5, §6, §7, §8"}, "[10]": {"test_system": "SW620 colon cancer cell line", "from_the_text": "as §1, §2, §3, §4, §5, §6, §7, §8"}, "[11]": {"test_system": "LS174T colon cancer cell line", "from_the_text": "as §1, §2, §3, §4, §5, §6, §7, §8"}, "[12]": {"test_system": "HT55 colon cancer cell line", "from_the_text": "as §1, §2, §3, §4, §5, §6, §7, §8"}, "[13]": {"test_system": "CL-11 colon cancer cell line", "from_the_text": "as §1, §2, §3, §4, §5, §6, §7, §8"}, "[14]": {"test_system": "Colo205 colon cancer cell line", "from_the_text": "as §1, §2, §3, §4, §5, §6, §7, §8"}, "[15]": {"test_system": "LS1034 colon cancer cell line", "from_the_text": "as §1, §2, §3, §4, §5, §6, §7, §8"}, "[16]": {"test_system": "HT115 colon cancer cell line", "from_the_text": "as §1, §2, §3, §4, §5, §6, §7, §8"}, "[17]": {"test_system": "HCC2998 colon cancer cell line", "from_the_text": "as §1, §2, §3, §4, §5, §6, §7, §8"}, "[18]": {"test_system": "SW403 colon cancer cell line", "from_the_text": "as §1, §2, §3, §4, §5, §6, §7, §8"}, "[19]": {"test_system": "Colo741 colon cancer cell line", "from_the_text": "as §1, §2, §3, §4, §5, §6, §7, §8"}, "[20]": {"conditions": "3 days, concentration reducing cell number to 50% of original inoculum"}, "[21]": {"conditions": "Homo sapiens, 72 h, 3 days treatment"}},
  "data": [
    {"smiles": "Cc1[nH]c2ccccc2c1CCNCc1ccc(/C=C/C(=O)NO)cc1", "note": "[LBH589, N-hydroxy-3-[4-[[[2-(2-methyl-1H-indol-3-yl)ethyl]-amino]methyl]phenyl]-2E-2-propenamide]", "values": [
      {"measurement": "IC50", "setting": "[1]; Homo sapiens, 72 h, SW480, 3 days treatment", "result": 1.48, "unit": "nM"},
      {"measurement": "LD50", "setting": "[1]; SW480, 3 days, concentration reducing cell number to 50% of original inoculum", "result": 6.90, "unit": "nM"},
      {"measurement": "LD50", "setting": "[2]; CaCo2, 3 days, concentration reducing cell number to 50% of original inoculum", "result": 45.55, "unit": "nM"},
      {"measurement": "IC50", "setting": "[2]; Homo sapiens, Caco-2, 72 h, CaCo2, 3 days treatment", "result": 13.8, "unit": "nM"},
      {"measurement": "IC50", "setting": "[3]; Homo sapiens, 72 h, SW837, 3 days treatment", "result": 0.66, "unit": "nM"},
      {"measurement": "LD50", "setting": "[3]; SW837, 3 days, concentration reducing cell number to 50% of original inoculum", "result": 11.46, "unit": "nM"},
      {"measurement": "LD50", "setting": "[4]; C2Bbe-1, 3 days, concentration reducing cell number to 50% of original inoculum", "result": 243.12, "unit": "nM"},
      {"measurement": "IC50", "setting": "[4]; Homo sapiens, C2BBe1, 72 h, C2Bbe-1, 3 days treatment", "result": 27.5, "unit": "nM"},
      {"measurement": "LD50", "setting": "[5]; Colo320, 3 days, concentration reducing cell number to 50% of original inoculum", "result": 82.90, "unit": "nM"},
      {"measurement": "IC50", "setting": "[5]; Homo sapiens, COLO 320, 72 h, Colo320, 3 days treatment", "result": 6.5, "unit": "nM"},
      {"measurement": "IC50", "setting": "[6]; Homo sapiens, KM-20L2, 72 h, KM20L2, 3 days treatment", "result": 14.6, "unit": "nM"},
      {"measurement": "LD50", "setting": "[6]; KM20L2, 3 days, concentration reducing cell number to 50% of original inoculum", "result": 16.95, "unit": "nM"},
      {"measurement": "LD50", "setting": "[7]; [20]", "result": 41.86, "unit": "nM"},
      {"measurement": "IC50", "setting": "[7]; [21]", "result": 4.39, "unit": "nM"},
      {"measurement": "LD50", "setting": "[8]; [20]", "result": ">10", "unit": "µM"},
      {"measurement": "IC50", "setting": "[8]; Homo sapiens, COLO-320-HSR, 72 h, 3 days treatment", "result": 13.8, "unit": "nM"},
      {"measurement": "IC50", "setting": "[9]; Homo sapiens, SW 1116, 72 h, SW1116, 3 days treatment", "result": 2.28, "unit": "nM"},
      {"measurement": "LD50", "setting": "[9]; SW1116, 3 days, concentration reducing cell number to 50% of original inoculum", "result": 26.93, "unit": "nM"},
      {"measurement": "IC50", "setting": "[10]; Homo sapiens, SW-620, 72 h, SW620, 3 days treatment", "result": 0.79, "unit": "nM"},
      {"measurement": "LD50", "setting": "[10]; SW620, 3 days, concentration reducing cell number to 50% of original inoculum", "result": 1.70, "unit": "nM"},
      {"measurement": "LD50", "setting": "[11]; [20]", "result": 87.41, "unit": "nM"},
      {"measurement": "IC50", "setting": "[11]; [21]", "result": 16.8, "unit": "nM"},
      {"measurement": "LD50", "setting": "[12]; HT55, 3 days, concentration reducing cell number to 50% of original inoculum", "result": 334.52, "unit": "nM"},
      {"measurement": "IC50", "setting": "[12]; Homo sapiens, 72 h, HT55, 3 days treatment", "result": 8.21, "unit": "nM"},
      {"measurement": "IC50", "setting": "[13]; 72 h, CL-11, 3 days treatment", "result": 3.54, "unit": "nM"},
      {"measurement": "LD50", "setting": "[13]; CL-11, 3 days, concentration reducing cell number to 50% of original inoculum", "result": 25.92, "unit": "nM"},
      {"measurement": "LD50", "setting": "[14]; Colo205, 3 days, concentration reducing cell number to 50% of original inoculum", "result": 33.52, "unit": "nM"},
      {"measurement": "IC50", "setting": "[14]; Homo sapiens, COLO 205, 72 h, Colo205, 3 days treatment", "result": 14.7, "unit": "nM"},
      {"measurement": "IC50", "setting": "[15]; Homo sapiens, LS-1034, 72 h, LS1034, 3 days treatment", "result": 76.7, "unit": "nM"},
      {"measurement": "LD50", "setting": "[15]; LS1034, 3 days, concentration reducing cell number to 50% of original inoculum", "result": 227.83, "unit": "nM"},
      {"measurement": "IC50", "setting": "[16]; 72 h, HT115, 3 days treatment", "result": 3.49, "unit": "nM"},
      {"measurement": "LD50", "setting": "[16]; HT115, 3 days, concentration reducing cell number to 50% of original inoculum", "result": 31.02, "unit": "nM"},
      {"measurement": "LD50", "setting": "[17]; HCC2998, 3 days, concentration reducing cell number to 50% of original inoculum", "result": 154.87, "unit": "nM"},
      {"measurement": "IC50", "setting": "[17]; Homo sapiens, HCC 2998, 72 h, HCC2998, 3 days treatment", "result": 29.7, "unit": "nM"},
      {"measurement": "IC50", "setting": "[18]; Homo sapiens, SW-403, 72 h, SW403, 3 days treatment", "result": 2.03, "unit": "nM"},
      {"measurement": "LD50", "setting": "[18]; SW403, 3 days, concentration reducing cell number to 50% of original inoculum", "result": 9.84, "unit": "nM"},
      {"measurement": "LD50", "setting": "[19]; Colo741, 3 days, concentration reducing cell number to 50% of original inoculum", "result": 33.73, "unit": "nM"},
      {"measurement": "IC50", "setting": "[19]; Homo sapiens, COLO-741, 72 h, Colo741, 3 days treatment", "result": 9.22, "unit": "nM"}
    ]}
  ]
}
